Experiments:
[1] = Surface area of sonidegib drug substance; assay type: physicochemical
[2] = Solubility of sonidegib phosphate in various media; assay type: physicochemical
Description: Solubility of Sonidegib Phosphate in Various Media

| solubility ([2]; acetate buffer, pH 4.5, aqueous buffer) [µg/mL] | solubility ([2]; phosphate buffer, pH 6.8, aqueous buffer) [µg/mL] | solubility ([2]; phosphate buffer, pH 7.4, aqueous buffer) [µg/mL] | solubility ([2]; simulated gastric fluid, 0.01N HCl, pH 2.0) [µg/mL] | solubility ([2]; simulated gastric fluid, 0.1N HCl, pH 1.0) [µg/mL] | solubility ([2]; water) [µg/mL] | SMILES | surface area [1] |
| --- | --- | --- | --- | --- | --- | --- | --- |
|  |  |  |  |  |  | Cc1c(C(=O)Nc2ccc(N3C[C@@H](C)O[C@@H](C)C3)nc2)cccc1-c1ccc(OC(F)(F)F)cc1 [Sonidegib, N-(6-((2R,6S)-2,6-dimethylmorpholino)pyridin-3-yl)-2-methyl-4′-(trifluoromethoxy)-[1,1′-biphenyl]-3-carboxamide] | Sonidegib has a very high surface area (270 m2/g) and a porous structure that leads to poor water solubility. |
| < 0.2 | < 0.2 | < 0.2 | 18 | 4 | 7 | Cc1c(C(=O)Nc2ccc(N3C[C@@H](C)O[C@@H](C)C3)nc2)cccc1-c1ccc(OC(F)(F)F)cc1 [Sonidegib Phosphate] |  |
